Experiment [1] deals with A2780 cells. Put plainly: In-vitro cell proliferation assay (SRB), A2780 cells.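 Also: viable cell number read as SRB absorbance, background from media-only wells subtracted, IC50 interpolated from percent inhibition at two bracketing compound concentrations.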 The class given is cell-based. Particulars: A2780 cells, 72 hours, SRB, read-out: A2780 IC50.
For experiment [2], the target named is NAMPT (Homo sapiens (Human), UniProt P43490). The experiment in a line: NAMPT biochemical inhibition assay (NMN quantified by mass spectrometry). The note with it: NAMPT biochemical inhibition; read-out: Biochem IC50.
Chain of NAMPT (P43490 whole entry): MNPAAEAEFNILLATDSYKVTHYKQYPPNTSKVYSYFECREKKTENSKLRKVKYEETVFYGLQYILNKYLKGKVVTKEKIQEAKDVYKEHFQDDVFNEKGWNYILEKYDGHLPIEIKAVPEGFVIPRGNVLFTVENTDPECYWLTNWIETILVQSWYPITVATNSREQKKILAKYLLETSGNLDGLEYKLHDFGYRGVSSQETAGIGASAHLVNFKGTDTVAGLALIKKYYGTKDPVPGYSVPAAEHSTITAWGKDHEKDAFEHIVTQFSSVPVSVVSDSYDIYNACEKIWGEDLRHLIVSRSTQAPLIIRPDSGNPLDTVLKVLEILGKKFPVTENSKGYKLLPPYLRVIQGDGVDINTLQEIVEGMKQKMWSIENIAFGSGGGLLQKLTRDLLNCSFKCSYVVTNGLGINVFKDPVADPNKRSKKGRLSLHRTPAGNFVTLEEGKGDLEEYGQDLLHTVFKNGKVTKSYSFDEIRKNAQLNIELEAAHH

pIC50: −log10 of the molar value. Where two headings read alike, the source gives them in different places. Some results are limits rather than exact numbers.

Drawing on patent publication US11279687B2, “Compounds and compositions for the inhibition of NAMPT” (Valo Health, Inc., priority 2010, dated 2022), this text covers IC50 for 36 compounds.

Consider `O=C(NCc1cccnc1)Nc1ccc(S(=O)(=O)N2CCCC3CCCCC32)cc1` (stereo not drawn) [1-[4-(decahydroquinoline-1-sulfonyl)phenyl]-3-(pyridin-3-ylmethyl)urea], for which the pIC50 in experiment [1] (Homo sapiens, A2780, 72 h) is 7.85; in experiment [2] it was 7.96.

With `CN(C)C(=O)c1cccc(S(=O)(=O)c2ccc(NC(=O)NCc3cccnc3)cc2)c1` [N,N-dimethyl-3-[(4-{[(pyridin-3-ylmethyl)carbamoyl]amino[benzene)sulfonyl]benzamide], the pIC50 in experiment [1] is 6.00 to 7.00; in experiment [2], 8.13.

Turning to `O=C(NCc1cccnc1)Nc1ccc(S(=O)(=O)N2Cc3cccc4cccc(c34)C2)cc1` [1-(4-{3-azatricyclo[7.3.1.0^5,^13]trideca-1(13),5,7,9,11-pentaene-3-sulfonyl}phenyl)-3-(pyridin-3-ylmethyl)urea], the figures for the pIC50 in experiment [1] and in experiment [2] were 7.59 and 8.70, respectively.

Regarding `COCCOc1ccc(CNC(=O)Nc2ccc(S(=O)(=O)c3ccccc3)cc2)cn1` [3-[4-(benzenesulfonyl)phenyl]-1-{[6-(2-methoxyethoxy)pyridin-3-yl]methyl}urea], the pIC50 in experiment [1] (Homo sapiens, A2780, 72 h) is below 5.00; in experiment [2], 5.67.

With `Cc1cc(-n2cccn2)ccc1S(=O)(=O)c1ccc(NC(=O)NCc2cccnc2)cc1` [3-(4-{[2-methyl-4-(1H-pyrazol-1-yl)benzene]sulfonyl}phenyl)-1-(pyridin-3-ylmethyl)urea], the pIC50 is 7.68 in experiment [1] (Homo sapiens, A2780, 72 h) and 8.70 in experiment [2].

Take `COc1ccc(C)cc1NS(=O)(=O)c1ccc(NC(=O)NCc2cccnc2)cc1` [3-{4-[(2-methoxy-5-methylphenyl)sulfamoyl]phenyl}-1-(pyridin-3-ylmethyl)urea]: the negative logarithm of the IC50 (pIC50) was 8.70 in experiment [1] (Homo sapiens, A2780, 72 h) and 8.70 in experiment [2].

As to `O=C(NCc1cccnc1)Nc1ccc(S(=O)(=O)N2CCC3(CCOC3)CC2)cc1` [1-(4-{2-oxa-8-azaspiro[4.5]decane-8-sulfonyl}phenyl)-3-(pyridin-3-ylmethyl)urea], the negative-log IC50 (pIC50) in experiment [1] (Homo sapiens, A2780, 72 h) was 7.05; in experiment [2] it was 8.30.

Turning to `O=C(NCc1cccnc1)Nc1ccc(S(=O)(=O)c2ccc(OC(F)(F)F)c(F)c2)cc1` [3-(4-{[3-fluoro-4-(trifluoromethoxy)benzene]sulfonyl}phenyl)-1-(pyridin-3-ylmethyl)urea], the negative-log IC50 (pIC50) in experiment [1] (Homo sapiens, A2780, 72 h) was 6.00 to 7.00; in experiment [2], 8.26.

Regarding `C[C@H](O)c1cccc(NS(=O)(=O)c2ccc(NC(=O)NCc3cccnc3)cc2)c1` [3-[4-({3-[(1S)-1-hydroxyethyl]phenyl}sulfamoyl)phenyl]-1-(pyridin-3-ylmethyl)urea], the negative-log IC50 (pIC50) in experiment [1] (Homo sapiens, A2780, 72 h) was 6.79; in experiment [2] it was 8.15.

Regarding `Cc1cccc(NS(=O)(=O)c2ccc(NC(=O)NCc3cccnc3)cc2)c1C` [3-{4-[(2,3-dimethylphenyl)sulfamoyl]phenyl}-1-(pyridin-3-ylmethyl)urea], the negative-log IC50 (pIC50) in experiment [1] (Homo sapiens, A2780, 72 h) is 7.13; in experiment [2], 9.05.

Regarding `O=C(NCc1cccnc1)Nc1ccc(S(=O)(=O)Nc2ccccc2N2CCCCC2)cc1` [1-(4-{[2-(piperidin-1-yl)phenyl]sulfamoyl}phenyl)-3-(pyridin-3-ylmethyl)urea], the pIC50 is 7.74 in experiment [1] (Homo sapiens, A2780, 72 h) and 8.40 in experiment [2].

As for `CS(=O)(=O)c1cccc(S(=O)(=O)c2ccc(NC(=O)NCc3cccnc3)cc2)c1` [3-{4-[(3-methanesulfonylbenzene)sulfonyl]phenyl}-1-(pyridin-3-ylmethyl)urea], the negative-log IC50 (pIC50) in experiment [1] (Homo sapiens, A2780, 72 h) is 6.00 to 7.00; in experiment [2], 8.18.

In the case of `O=C(NCc1cccnc1)Nc1ccc(S(=O)(=O)c2cc(C(F)(F)F)ccc2Cl)cc1` [3-(4-{[2-chloro-5-(trifluoromethyl)benzene]sulfonyl}phenyl)-1-(pyridin-3-ylmethyl)urea], the pIC50 in experiment [1] (Homo sapiens, A2780, 72 h) is 6.47; in experiment [2] it was 8.30.

Consider `CCc1cccc(S(=O)(=O)c2ccc(NC(=O)NCc3cccnc3)cc2)c1` [3-{4-[(3-ethylbenzene)sulfonyl]phenyl}-1-(pyridin-3-ylmethyl)urea], for which the pIC50 in experiment [1] (Homo sapiens, A2780, 72 h) is 7.15; in experiment [2], 8.70.

With `O=C(NCc1cccnc1)Nc1ccc(S(=O)(=O)c2ccccc2Oc2ccccc2)cc1` [1-{4-[(2-phenoxybenzene)sulfonyl]phenyl}-3-(pyridin-3-ylmethyl)urea], the pIC50 in experiment [1] (Homo sapiens, A2780, 72 h) was 8.10; in experiment [2], 8.70.

Turning to `Cc1cc(Cl)cc(S(=O)(=O)c2ccc(NC(=O)NCc3cccnc3)cc2)c1` [3-{4-[(3-chloro-5-methylbenzene)sulfonyl]phenyl}-1-(pyridin-3-ylmethyl)urea], the pIC50 was 7.17 in experiment [1] (Homo sapiens, A2780, 72 h) and 8.74 in experiment [2].

Take `O=C(NCc1cccnc1)Nc1ccc(S(=O)(=O)c2cc(Cl)cc(Cl)c2)cc1` [3-{4-[(3,5-dichlorobenzene)sulfonyl]phenyl}-1-(pyridin-3-ylmethyl)urea]: the pIC50 in experiment [1] (Homo sapiens, A2780, 72 h) was 6.00 to 7.00; in experiment [2], 8.72.

For `CC(=O)c1cccc(S(=O)(=O)c2ccc(NC(=O)NCc3cccnc3)cc2)c1` [3-{4-[(3-acetylbenzene)sulfonyl]phenyl}-1-(pyridin-3-ylmethyl)urea], the pIC50 in experiment [1] (Homo sapiens, A2780, 72 h) is 6.00 to 7.00; in experiment [2], 8.68.

In the case of `O=C(NCc1cccnc1)Nc1ccc(S(=O)(=O)N2CCC[C@H](C(F)(F)F)C2)cc1` [1-(pyridin-3-ylmethyl)-3-{4-[(3S)-3-(trifluoromethyl)piperidine-1-sulfonyl]phenyl}urea], the pIC50 in experiment [1] (Homo sapiens, A2780, 72 h) is 7.54; in experiment [2], 8.52.

Take `O=C(NCc1cccnc1)Nc1ccc(S(=O)(=O)c2ccc(F)cc2F)cc1` [3-{4-[(2,4-difluorobenzene)sulfonyl]phenyl}-1-(pyridin-3-ylmethyl)urea]: the pIC50 in experiment [1] (Homo sapiens, A2780, 72 h) is 6.46; in experiment [2], 9.00.

On to `CCCOc1ccc(S(=O)(=O)c2ccc(NC(=O)NCc3cccnc3)cc2)cc1F` [3-{4-[(3-fluoro-4-propoxybenzene)sulfonyl]phenyl}-1-(pyridin-3-ylmethyl)urea], for which the pIC50 is 7.23 in experiment [1] (Homo sapiens, A2780, 72 h) and 8.89 in experiment [2].

With `O=C(NCc1ccc2nccn2c1)c1ccc(S(=O)(=O)c2ccccc2Cl)cc1` [4-[(2-chlorobenzene)sulfonyl]-N-{imidazo[1,2-a]pyridin-6-ylmethyl}benzamide], the negative logarithm of the IC50 (pIC50) was 8.41 in experiment [1] (Homo sapiens, A2780, 72 h) and 7.71 in experiment [2].

Take `COc1ccc(C)cc1S(=O)(=O)c1ccc(NC(=O)NCc2cccnc2)cc1` [3-{4-[(2-methoxy-5-methylbenzene)sulfonyl]phenyl}-1-(pyridin-3-ylmethyl)urea]: the pIC50 was 8.15 in experiment [1] (Homo sapiens, A2780, 72 h) and 8.40 in experiment [2].

Consider `O=C(NCc1cccnc1)Nc1ccc(S(=O)(=O)c2cccc(C(=O)N3CCOCC3)c2)cc1` [1-[4-({3-[(morpholin-4-yl)carbonyl]benzene}sulfonyl)phenyl]-3-(pyridin-3-ylmethyl)urea], for which the negative-log IC50 (pIC50) is 6.00 to 7.00 in experiment [1] (Homo sapiens, A2780, 72 h) and 8.30 in experiment [2].

`O=C(NCc1cccnc1)Nc1ccc(S(=O)(=O)N2CCC3(CCCCC3)CC2)cc1` [1-(4-{3-azaspiro[5.5]undecane-3-sulfonyl}phenyl)-3-(pyridin-3-ylmethyl)urea]: the pIC50 was 6.84 in experiment [1] (Homo sapiens, A2780, 72 h) and 7.96 in experiment [2].

As to `O=C(NCc1cccnc1)Nc1ccc(S(=O)(=O)Nc2ccc(F)cc2Cl)cc1` [3-{4-[(2-chloro-4-fluorophenyl)sulfamoyl]phenyl}-1-(pyridin-3-ylmethyl)urea], the pIC50 in experiment [1] (Homo sapiens, A2780, 72 h) was 7.44; in experiment [2] it was 9.05.

For `O=C(NCc1cccnc1)Nc1ccc(S(=O)(=O)Nc2ccccc2Cl)cc1` [3-{4-[(2-chlorophenyl)sulfamoyl]phenyl}-1-(pyridin-3-ylmethyl)urea], the negative logarithm of the IC50 (pIC50) was 7.39 in experiment [1] (Homo sapiens, A2780, 72 h) and 8.52 in experiment [2].

With `O=C(NCc1ccc2nccn2c1)c1ccc(S(=O)(=O)c2cc(F)cc(F)c2)cc1` [4-[(3,5-difluorobenzene)sulfonyl]-N-{imidazo[1,2-a]pyridin-6-ylmethyl}benzamide], the pIC50 in experiment [1] (Homo sapiens, A2780, 72 h) is 8.24; in experiment [2], 7.75.

As to `O=C(NCc1cccnc1)Nc1ccc(S(=O)(=O)Nc2ccc(Cl)cc2Cl)cc1` [3-{4-[(2,4-dichlorophenyl)sulfamoyl]phenyl]-1-(pyridin-3-ylmethyl)urea], the pIC50 is 6.72 in experiment [1] (Homo sapiens, A2780, 72 h) and 8.52 in experiment [2].

On to `O=C(NCc1ccc(C(F)(F)F)nc1)Nc1ccc(S(=O)(=O)N2CCCCC2)cc1` [3-[4-(piperidine-1-sulfonyl)phenyl]-1-{[6-(trifluoromethyl)pyridin-3-yl]methyl]urea], for which the pIC50 in experiment [1] (Homo sapiens, A2780, 72 h) was below 4.52; in experiment [2], 6.72.

With `CN(Cc1ccccc1)S(=O)(=O)c1ccc(NC(=O)NCc2cccnc2)cc1` [3-{4-[benzyl(methyl)sulfamoyl]phenyl}-1-(pyridin-3-ylmethyl)urea], the negative logarithm of the IC50 (pIC50) in experiment [1] (Homo sapiens, A2780, 72 h) is 6.97; in experiment [2], 8.96.

Regarding `CN(Cc1cccc(F)c1)S(=O)(=O)c1ccc(NC(=O)NCc2cccnc2)cc1` [3-(4-{[(3-fluorophenyl)methyl](methyl)sulfamoyl}phenyl)-1-(pyridin-3-ylmethyl)urea], the pIC50 in experiment [1] (Homo sapiens, A2780, 72 h) was 6.81; in experiment [2], 8.70.

Take `CN(C)c1ncc(S(=O)(=O)c2ccc(NC(=O)NCc3cccnc3)cc2)cn1` [3-{4-[2-(dimethylamino)pyrimidine-5-sulfonyl]phenyl}-1-(pyridin-3-ylmethyl)urea]: the negative logarithm of the IC50 (pIC50) was 6.00 to 7.00 in experiment [1] (Homo sapiens, A2780, 72 h) and 8.23 in experiment [2].

Turning to `CCN(CC)C(=O)[C@H]1CCCN(S(=O)(=O)c2ccc(NC(=O)NCc3cccnc3)cc2)C1` [(3S)-N,N-diethyl-1-[(4-{[(pyridin-3-ylmethyl)carbamoyl]amino}benzene)sulfonyl]piperidine-3-carboxamide], the negative logarithm of the IC50 (pIC50) in experiment [1] is 7.60; in experiment [2], 8.22.

Turning to `O=C(NCc1cccnc1)Nc1ccc(S(=O)(=O)c2cccc(C(=O)NC3CCCC3)c2)cc1` [N-cyclopentyl-3-[(4-{[(pyridin-3-ylmethyl)carbamoyl]amino[benzene)sulfonyl]benzamide], the negative-log IC50 (pIC50) in experiment [1] is 6.00 to 7.00; in experiment [2], 8.02.

Consider `COCc1ccccc1S(=O)(=O)c1ccc(NC(=O)NCc2cccnc2)cc1` [3-(4-{[2-(methoxymethyl)benzene]sulfonyl}phenyl)-1-(pyridin-3-ylmethyl)urea], for which the negative-log IC50 (pIC50) in experiment [1] (Homo sapiens, A2780, 72 h) was 7.41; in experiment [2], 8.22.
